Laboratory results published in patent publication US20110009416A1, “PH INDEPENDENT FORMULATIONS OF 6-(5-CHLORO-2-PYRIDYL)-5-[(4-METHYL-1-PIPERAZINYL)CARBONYLOXY]-7-OXO-6,7-DIHYDRO-5H-PYRROLO[3,4-b]PYRAZINE” (SEPRACOR INC., priority 2009, published 2011).

Experiment: Dissolution over time of uncoated 3 mg eszopiclone tablets (Hanson SR8-Plus apparatus, fiber optic UV at 305 nm)
Type: physicochemical
Protocol: Dissolution over time of eszopiclone free base compounded with various solid acids was compared to that of free base at body temperature (37° C.) in dissolution media at various pH values using Hanson Research SR8—Plus Dissolution Apparatus and C-Technologies Fiber Optic UV Probes at 305 nm (excipients subtracted at 410 nm). The dissolution media used were (a) pH 1 (0.1N HCl) 50 ml of conc HCl mixed in 6 L of water; (b) pH 4.5 acetate buffer (20 mM) 5.88 g of sodium acetate trihydrate dissolved in 6 L of water, pH adjusted to 4.5 with acetic acid; (c) pH 5.5 phosphate buffer (20 mM) 16.3 g of potassium dihydrogen phosphate in 6 L of water. pH adjusted to 5.5 with NaOH; (d) pH 6.8 phosphate buffer (20 mM) 16.3 g of potassium dihydrogen phosphate in 6 L of water. pH adjusted 6.8 with NaOH. A standard dissolution protocol was used. The standard solution (0.006 mg/mL of eszopiclone free base) was prepared by weighing a known amount (−20 mg) of the free base into a 100 mL volumetric flask. 10 mL of acetonitrile was added into the flask and sonicated until the solids dissolved completely. The solution was cooled to room temperature and made up to the 100 mL mark using media and mixed well. Dilute 3 mL to 100 mL using media. The tables were prepared by transferring 500 mL dissolution media into the 6 vessels. Blank readings were taken for all the probes using media. Standards were read for individual vessels. Probes were washed with media and then inserted back into each vessel. […] The dissolution program was started immediately and readings were taken at 305 nm for 60 min (every 1 min for 20 min and then every 10 min)
The following tables display results of dissolution experiments in deionized (DI) water of uncoated tablets formed from 3 mg free base IR eszopiclone (with no more than 0.3% (R)-zopiclone) with various acids. […] The pH values of the media was measured using a pH paper, in-situ at various time points during the dissolution experiment run in deionized (DI) water of uncoated tablets formed from 3 mg free base IR eszopiclone with 12% L-malic acid. […]

Compound: CN1CCN(C(=O)O[C@H]2c3nccnc3C(=O)N2c2ccc(Cl)cn2)CC1 [free base, [(9S)-8-(5-chloropyridin-2-yl)-7-oxo-2,5,8-triazabicyclo[4.3.0]nona-1,3,5-trien-9-yl]-4-methyl piperazine-1-carboxylate]
- dissolution profile in water (in words) (in water, FIG. 2 and FIG. 4, up to one hour): slow and incomplete
- dissolved at one hour (in water, FIG. 4, one hour): less than 50%
- dissolution profile at pH 1 (in words) (pH 1, FIG. 3): dissolve rapidly and completely
